# Measurements reported in patent US10266548B2, “Substituted benzylindazoles for use as Bub1 kinase inhibitors in the treatment of hyperproliferative diseases” (Bayer Intellectual Property GmbH, priority 2011, dated 2019).
# Structures can show the parent of a compound that is named as a salt. Where two headings read alike, the source gives them in different places.
# Key:
# [1] = system: NCI-H460 cells; assay: Proliferation assay (H460 cell line); type: cell-based; conditions: Homo sapiens, NCI-H460, 96 h, read-out: Biological Assay 2: Proliferation assay (H460 cell line) median IC50
# Method: (§1) Cultivated tumor cells (cells were ordered from ATCC, except HeLa-MaTu and HeLa-MaTu-ADR, which were ordered from EPO-GmbH, Berlin) were plated at a density of 1000 to 5000 cells/well, depending on the growth rate of the respective cell line, in a 96-well multititer plate in 200 μL of their respective growth medium supplemented 10% fetal calf serum. After 24 hours, the cells of one plate (zero-point plate) were stained with crystal violet (see below), while the medium of the other plates was replaced by fresh culture medium (200 μl), to which the test substances were added in various concentrations (0 μM, as well as in the range of 0.001-10 μM; the final concentration of the solvent dimethyl sulfoxide was 0.5%). The cells were incubated for 4 days in the presence of test substances. Cell proliferation was determined by staining the cells with crystal violet: the cells were fixed by adding 20 μl/measuring point of an 11% glutaric aldehyde solution for 15 minutes at room temperature. After three washing cycles of the fixed cells with water, the plates were dried at room temperature. The cells were stained by adding 100 μl/measuring point of a 0.1% crystal violet solution (pH 3.0). After three washing cycles of the stained cells with water, the plates were dried at room temperature. The dye was dissolved by adding 100 μl/measuring point of a 10% acetic acid solution. […] The change of cell number, in percent, was calculated by normalization of the measured values to the aborbtion values of the zero-point plate (=0%) and the absorbtion of the untreated (0 μm) cells (=100%). The IC50 values were determined by means of a 4 parameter fit using the company's own software.
# [2] = system: HeLa cells; assay: Proliferation assay (HeLa cell line); type: cell-based; conditions: read-out: Biological Assay 2: Proliferation assay (HeLa cell line) median IC50
# [3] = system: HeLa-MaTu-ADR cells; assay: Proliferation assay (HeLa-MaTu-ADR cell line); type: cell-based; conditions: 96 h, read-out: Biological Assay 2: Proliferation assay (HeLa-MaTu-ADR cell line) median IC50
# Method: as §1
# [4] = system: B16F10 cells; assay: Proliferation assay (B16F10 cell line); type: cell-based; conditions: Mus musculus, B16-F10, 96 h, read-out: Biological Assay 2: Proliferation assay (B16F10 cell line) median IC50
# Method: as §1
# [5] = system: Caco2 cells; assay: Proliferation assay (Caco2 cell line); type: cell-based; conditions: Homo sapiens, Caco-2, 96 h, read-out: Biological Assay 2: Proliferation assay (Caco2 cell line) median IC50
# Method: as §1
# [6] = target: catalytic domain of human Bub1 (amino acids 704-1085) (Homo sapiens (Human), UniProt O43683); assay: Bub1 kinase assay (TR-FRET); type: biochemical; conditions: 10 μM ATP, 1 μM peptide substrate; read-out: Biological Assay 1: Bub1 kinase assay median IC50
# Summary of the method: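 Phosphoserine product detected by TR-FRET (Eu-labeled anti-mouse IgG/anti-phosphoserine antibody to streptavidin-XL665) after 1 h at 22 °C. IC50 from 4-parameter logistic fit.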
# [7] = system: DU145 cells; assay: Proliferation assay (DU145 cell line); type: cell-based; conditions: Homo sapiens, DU-145, 96 h, read-out: Biological Assay 2: Proliferation assay (DU145 cell line) median IC50
# Method: as §1
# [8] = Homo sapiens, 96 h, 4 days, crystal violet
# [9] = HeLa-MaTu-ADR, 4 days, crystal violet
SMILES,"IC50 ([1]; H460, 4 days, crystal violet) [nM]","IC50 [2, 8] [nM]","IC50 [3, 9] [nM]","IC50 ([4]; B16F10, 4 days, crystal violet) [nM]","IC50 ([5]; Caco2, 4 days, crystal violet) [nM]",IC50 [6] [nM],"IC50 ([7]; DU145, 4 days, crystal violet) [nM]",IC50 [1] [nM],IC50 [3] [nM],IC50 [4] [nM],IC50 [5] [nM],IC50 [7] [nM],"IC50 ([2]; Homo sapiens, 96 h) [nM]","IC50 ([2]; 4 days, crystal violet) [nM]"
"COc1cnc(-c2nn(Cc3c(F)ccc(OC)c3F)c3ccccc23)nc1Nc1ccncc1 [Example 2-4-1, 2-[1-(2,6-difluoro-3-methoxybenzyl)-1H-indazol-3-yl]-5-methoxy-N-(pyridin-4-yl)pyrimidin-4-amine]",4200,3500,1300,1200,1400,4.5,3300,–,–,–,–,–,–,–
"COc1cnc(-c2nn(Cc3cc4c(cc3Br)OCO4)c3ccccc23)nc1Nc1ccncc1 [Example 2-4-3, 2-{1-[(6-bromo-1,3-benzodioxol-5-yl)methyl]-1H-indazol-3-yl}-5-methoxy-N-(pyridin-4-yl)pyrimidin-4-amine]",9000,3900,100,1500,1900,14,2500,–,–,–,–,–,–,–
"COc1cnc(-c2nn(Cc3c(Cl)cccc3Cl)c3ccccc23)nc1Nc1ccncc1 [Example 2-9-1, 2-[1-(2,6-dichlorobenzyl)-1H-indazol-3-yl]-5-methoxy-N-(pyridin-4-yl)pyrimidin-4-amine]",–,–,–,–,–,6.7,–,10000,8100,9500,10000,10000,–,–
"COC(=O)c1ccc(Cn2nc(-c3ncc(OC)c(Nc4ccncc4)n3)c3ccccc32)c(Cl)c1 [Example 2-11-1, methyl 3-chloro-4-({3-[5-methoxy-4-(pyridin-4-ylamino)pyrimidin-2-yl]-1H-indazol-1-yl}methyl)benzoate]",3000,290,3000,2900,3000,7.1,3000,–,–,–,–,–,–,–
"COC(=O)c1ccc(CN(c2ccncc2)c2nc(-c3nn(Cc4ccc(C(=O)OC)cc4Cl)c4ccccc34)ncc2OC)c(Cl)c1 [Example 2-11-2, methyl 3-chloro-4-{[(2-{1-[2-chloro-4-(methoxycar-bonyl)benzyl]-1H-indazol-3-yl}-5-methoxypyrimidin-4-yl)(pyridin-4-yl)amino]methyl} benzoate]",–,–,–,–,–,540,–,2300,10000,2100,8000,3600,3400,–
"COc1cnc(-c2nn(Cc3c(F)cc(Br)cc3F)c3ccccc23)nc1Nc1ccncc1 [Example 2-12-1, 2-[1-(4-bromo-2,6-difluorobenzyl)-1H-indazol-3-yl]-5-methoxy-N-(pyridin-4-yl)pyrimidin-4-amine]",–,–,–,–,–,7.3,–,1500,1300,1400,1400,1600,1600,–
"COc1cnc(-c2nn(Cc3c(F)c(F)c(OC)c(F)c3F)c3ccccc23)nc1Nc1ccncc1 [Example 2-24-1, 5-methoxy-N-(pyridin-4-yl)-2-[1-(2,3,5,6-tetrafluoro-4-methoxybenzyl)-1H-indazol-3-yl]pyrimidin-4-amine]",–,–,–,–,–,14,–,2000,1300,1400,1500,1300,3100,–
"CCCc1ccc(Cn2nc(-c3ncc(OC)c(Nc4ccncc4)n3)c3ccccc32)cc1 [Example 2-25-1, 5-methoxy-2-[1-(4-propylbenzyl)-1H-indazol-3-yl]-N-(pyridin-4-yl)pyrimidin-4-amine]",10000,9800,10000,10000,10000,15,10000,–,–,–,–,–,–,–
"COc1cnc(-c2nn(Cc3c(Cl)cc(OC(F)(F)F)cc3Cl)c3ccccc23)nc1Nc1ccncc1 [Example 2-26-1, 2-{1-[2,6-dichloro-4-(trifluoromethoxy)benzyl]-1H-indazol-3-yl}-5-methoxy-N-(pyridin-4-yl)pyrimidin-4-amine]",–,–,–,–,–,16,–,1000,390,420,380,530,560,–
"COc1cnc(-c2nn(Cc3ccc4c(C)cc(=O)oc4c3)c3ccccc23)nc1Nc1ccncc1 [Example 2-32-1, 7-({3-[5-methoxy-4-(pyridin-4-ylamino)pyrimidin-2-yl]-1H-indazol-1-yl}methyl)-4-methyl-2H-chromen-2-one]",8500,4200,2300,1300,2400,29,5300,–,–,–,–,–,–,–
"COc1cnc(-c2nn(Cc3c(Cl)ccc(C(F)(F)F)c3Cl)c3ccccc23)nc1Nc1ccncc1 [Example 2-34-1, 2-{1-(2,6-dichloro-3-(trifluoromethyl)benzyl]-1H-indazol-3-yl}-5-methoxy-N-(pyridin-4-yl)pyrimidin-4-amine]",6600,1600,1200,1200,3400,38,2600,–,–,–,–,–,–,–
"COc1cnc(-c2nn(Cc3c(F)cc(C#N)cc3F)c3ccccc23)nc1Nc1ccncc1 [Example 2-46-1, 3,5-difluoro-4-({3-[5-methoxy-4-(pyridin-4-ylamino)pyrimidin-2-yl]-1H-indazol-1-yl}methyl)benzonitrile]",–,–,–,–,–,16,–,880,380,710,900,850,1400,–
"O=C(O)c1cnccc1Nc1nc(-c2nn(Cc3ccccc3F)c3ccccc23)ncc1OCCO [Example 33-1, 4-({2-[1-(2-fluorobenzyl)-1H-indazol-3-yl]-5-(2-hydroxyethoxy)pyrimidin-4-yl}amino)pyridine-3-carboxylic acid hydrochloride (1:1)]",–,–,–,–,–,11,–,–,–,–,–,–,≥ 10000,–
"COc1ccc(Cn2nc(-c3ncc(OC)c(Nc4ccnc(F)c4)n3)c3ccccc32)cc1 [Example 34-1, N-(2-fluoropyridin-4-yl)-5-methoxy-2-[1-(4-methoxybenzyl)-1H-indazol-3-yl]pyrimidin-4-amine]",–,–,–,–,–,230,–,–,–,–,–,–,≥ 10000,–
"COc1ccc(Cn2nc(-c3ncc(OC)c(Nc4cc(F)nc(F)c4)n3)c3ccccc32)cc1 [Example 34-2, N-(2,6-difluoropyridin-4-yl)-5-methoxy-2-[1-(4-methoxybenzyl)-1H-indazol-3-yl]pyrimidin-4-amine]",–,–,–,–,–,6200,–,–,–,–,–,–,≥ 10000,–
"COc1ccc(Cn2nc(-c3ncc(OC)c(Nc4ccncc4F)n3)c3ccccc32)cc1 [Example 34-3, N-(3-fluoropyridin-4-yl)-5-methoxy-2-[1-(4-methoxybenzyl)-1H-indazol-3-yl]pyrimidin-4-amine]",–,–,–,–,–,28,–,–,–,–,–,–,8700,–
"CCOc1cc(F)c(Cn2nc(-c3ncc(OCCS(C)(=O)=O)c(Nc4ccncc4)n3)c3ccccc32)c(F)c1 [Example 37-1, 2-[1-(4-ethoxy-2,6-difluorobenzyl)-1H-indazol-3-yl]-5-[2-(methylsulfonyl)ethoxy]-N-(pyridin-4-yl)pyrimidin-4-amine]",–,4200,–,–,–,5.7,–,–,–,–,–,–,–,–
CCOc1cc(F)c(Cn2nc(-c3ncc(OC)c(Nc4c(F)cncc4F)n3)c3ccccc32)c(F)c1 [Example 39-2],–,–,–,–,–,670,–,–,–,–,–,–,–,≥ 10000
"CCOc1cc(F)c(Cn2nc(-c3ncc(OC)c(Nc4ccncc4)n3)c3c(C)cccc32)c(F)c1 [Example 42-1, 2-[1-(4-ethoxy-2,6-difluorobenzyl)-4-methyl-1H-indazol-3-yl]-5-methoxy-N-(pyridin-4-yl)pyrimidin-4-amine]",–,3600,–,–,–,6.7,–,–,–,–,–,–,–,–
